From patent publication US8293743B2, “Substituted imidazo[1,2-A]pyrazine derivatives as alpha-helix mimetics and method relating to the treatment of cancer stem cells” (Choongwae Pharma Corporation, priority 2005, dated 2012)
“Also recorded” adds a separate entry of the source.

Legend:
[1] = system: MDR-1; assay: MDR-1/luciferase reporter activity in MES-SA/Dx5 cells; type: cell-based, human; conditions: read-out: IC50, reduction of MDR-1 luciferase activity
Description: (§1) To investigate differential coactivator usage for the transcriptional regulation of the MDR-1 gene in MES-SA cells, the chemogenomic tool ICG-001 was used (Emami et al. 2004).

[2] = system: MDR-1; assay: MDR-1 protein expression in MES-SA/Dx5 cells (immunofluorescence, immunoblotting); type: cell-based, human; conditions: immunofluorescence and immunoblotting, dose dependent
Description: as §1

[3] = system: MDR-1; assay: MDR-1/luciferase activity in isogenic HCT116 cell lines; type: cell-based
Description: To further confirm the importance of the role of nuclear β-catenin in driving MDR-1 expression, isogenic HCT-116 cell lines were utilized (Waldmann 2002).
MDR-1 transcriptional regulation in the isogenic HCT116 cell lines was also investigated. […] Transfection of p300 decreased MDR-1/luciferase activity below control levels in all 3 cell lines (FIG. 17A).

[4] = system: MDR-1 promoter; assay: ChIP assay of coactivator occupancy of the MDR-1 promoter in MES-SA/Dx5 cells; type: cell-based, human
Description: Similar ICG-001 induced p300 recruitment at the survivin promoter has been previously observed, which was associated with recruitment of proteins associated with transcriptional repression (i.e., HDAC6 and PML) (H Ma et al. Oncogene 2005). A proposed non-binding mechanism is repressive transcriptional apparatus recruitment to the MDR-1 promoter by p300.

[5] = system: MES-SA/Dx5 cells; assay: Cell proliferation/viability of MES-SA/Dx5 cells, Doxorubicin +/- ICG-001; type: cell-based, human; conditions: in combination with Doxorubicin
Procedure: (§2) MDR transporters are believed to play important roles in protecting cancer stem cells from chemotherapy (Dean et al, Nat. Rev. Cancer 5, 275, 2005). To further study this phenomenon, a series of experiments was performed.

[6] = system: K562 imatinib resistant cells; assay: Cell proliferation/viability of K562 imatinib resistant cells, Imatinib mesylate +/- ICG-001; type: cell-based; conditions: in combination with Imatinib mesylate
Procedure: as §2

[7] = system: caspase3/7; assay: Caspase3/7 activation in MES-SA/Dx5 cells; type: cell-based, human; conditions: added to cells treated with 1 mg/ml or 5 mg/ml of Doxorubicin
Procedure: as §2

[8] = system: CD34+ CML blasts; assay: Colony formation (CFU) of CD34+ blasts from bone marrow of CML patients; type: cell-based; conditions: for total colony forming units (CFU): combination ICG-001 and imatinib vs control or either drug alone
[9] = system: normal CD34+ cells; assay: Effect on normal CD34+ hematopoietic cells (cellularity, colony formation); type: cell-based
Description: This is the result of the emergence of leukemic drug resistant clones associated with increased nuclear β-catenin levels, a hallmark of increased TCF/β-catenin transcription (Weissman NEJM 2003). […] In sharp contrast, the control colonies were large and compact.

[10] = system: K562 cells; assay: Differentiation and caspase activation in K562 cells; type: cell-based
[11] = system: A2780; assay: Colony inhibition assay, A2780; type: cell-based; conditions: for Average plating efficiency: A2780, 80 cells/well
Procedure: (§3) Colony inhibition assays were performed, in which plated cells from A2780, CP70, IGROV-1 and B16 cells were exposed to doses of ICG-001 within the range of 0.625 to 10 μM. An exemplary experiment is illustrated in Table 3.
(§4) Table 4 presents data on the plating efficiencies of cultured cells from A2780, CP70, IGROV-1 and B16 in control wells as well as in wells exposed to ICG-001.
(§5) The cells were tested at range of concentrations of ICG-001 between 0.625 and 10 μM and at cisplatin concentrations between 1.25 to 20 μM. All three ovarian cancer lines tested (A2780, CP70 and IGROV-1) were more sensitive to ICG-001 than to cisplatin. […] The cisplatin-sensitive lines, IGROV-1 and A2780, had similar sensitivity to ICG-001 as to cisplatin (FIGS. 23A and B).

[12] = system: CP70; assay: Colony inhibition assay, CP70; type: cell-based; conditions: for Average plating efficiency: CP70, 80 cells/well
Procedure: as §3, §4, §5

[13] = system: IGROV-1; assay: Colony inhibition assay, IGROV-1; type: cell-based; conditions: IGROV-1, 80 cells/well
Procedure: as §3, §4, §5

[14] = system: IGROV-1/CP; assay: Colony inhibition assay, IGROV-1/CP; type: cell-based; conditions: 80 cells/well
[15] = system: B16; assay: Colony inhibition assay, B16 melanoma; type: cell-based, mouse; conditions: B16, 80 cells/well
Procedure: as §3, §4

[16] = target: T1, CBP-β-catenin (Homo sapiens, UniProt Q92793); assay: TOPFlash reporter system in SW480 cells (CBP-β-catenin binding); type: cell-based; conditions: increasing concentrations
T1 construct: tested using the TOPFlash reporter system in SW480 cells; endogenous in cells; host or cells: SW480 cells
T1 sequence (Q92793 whole entry): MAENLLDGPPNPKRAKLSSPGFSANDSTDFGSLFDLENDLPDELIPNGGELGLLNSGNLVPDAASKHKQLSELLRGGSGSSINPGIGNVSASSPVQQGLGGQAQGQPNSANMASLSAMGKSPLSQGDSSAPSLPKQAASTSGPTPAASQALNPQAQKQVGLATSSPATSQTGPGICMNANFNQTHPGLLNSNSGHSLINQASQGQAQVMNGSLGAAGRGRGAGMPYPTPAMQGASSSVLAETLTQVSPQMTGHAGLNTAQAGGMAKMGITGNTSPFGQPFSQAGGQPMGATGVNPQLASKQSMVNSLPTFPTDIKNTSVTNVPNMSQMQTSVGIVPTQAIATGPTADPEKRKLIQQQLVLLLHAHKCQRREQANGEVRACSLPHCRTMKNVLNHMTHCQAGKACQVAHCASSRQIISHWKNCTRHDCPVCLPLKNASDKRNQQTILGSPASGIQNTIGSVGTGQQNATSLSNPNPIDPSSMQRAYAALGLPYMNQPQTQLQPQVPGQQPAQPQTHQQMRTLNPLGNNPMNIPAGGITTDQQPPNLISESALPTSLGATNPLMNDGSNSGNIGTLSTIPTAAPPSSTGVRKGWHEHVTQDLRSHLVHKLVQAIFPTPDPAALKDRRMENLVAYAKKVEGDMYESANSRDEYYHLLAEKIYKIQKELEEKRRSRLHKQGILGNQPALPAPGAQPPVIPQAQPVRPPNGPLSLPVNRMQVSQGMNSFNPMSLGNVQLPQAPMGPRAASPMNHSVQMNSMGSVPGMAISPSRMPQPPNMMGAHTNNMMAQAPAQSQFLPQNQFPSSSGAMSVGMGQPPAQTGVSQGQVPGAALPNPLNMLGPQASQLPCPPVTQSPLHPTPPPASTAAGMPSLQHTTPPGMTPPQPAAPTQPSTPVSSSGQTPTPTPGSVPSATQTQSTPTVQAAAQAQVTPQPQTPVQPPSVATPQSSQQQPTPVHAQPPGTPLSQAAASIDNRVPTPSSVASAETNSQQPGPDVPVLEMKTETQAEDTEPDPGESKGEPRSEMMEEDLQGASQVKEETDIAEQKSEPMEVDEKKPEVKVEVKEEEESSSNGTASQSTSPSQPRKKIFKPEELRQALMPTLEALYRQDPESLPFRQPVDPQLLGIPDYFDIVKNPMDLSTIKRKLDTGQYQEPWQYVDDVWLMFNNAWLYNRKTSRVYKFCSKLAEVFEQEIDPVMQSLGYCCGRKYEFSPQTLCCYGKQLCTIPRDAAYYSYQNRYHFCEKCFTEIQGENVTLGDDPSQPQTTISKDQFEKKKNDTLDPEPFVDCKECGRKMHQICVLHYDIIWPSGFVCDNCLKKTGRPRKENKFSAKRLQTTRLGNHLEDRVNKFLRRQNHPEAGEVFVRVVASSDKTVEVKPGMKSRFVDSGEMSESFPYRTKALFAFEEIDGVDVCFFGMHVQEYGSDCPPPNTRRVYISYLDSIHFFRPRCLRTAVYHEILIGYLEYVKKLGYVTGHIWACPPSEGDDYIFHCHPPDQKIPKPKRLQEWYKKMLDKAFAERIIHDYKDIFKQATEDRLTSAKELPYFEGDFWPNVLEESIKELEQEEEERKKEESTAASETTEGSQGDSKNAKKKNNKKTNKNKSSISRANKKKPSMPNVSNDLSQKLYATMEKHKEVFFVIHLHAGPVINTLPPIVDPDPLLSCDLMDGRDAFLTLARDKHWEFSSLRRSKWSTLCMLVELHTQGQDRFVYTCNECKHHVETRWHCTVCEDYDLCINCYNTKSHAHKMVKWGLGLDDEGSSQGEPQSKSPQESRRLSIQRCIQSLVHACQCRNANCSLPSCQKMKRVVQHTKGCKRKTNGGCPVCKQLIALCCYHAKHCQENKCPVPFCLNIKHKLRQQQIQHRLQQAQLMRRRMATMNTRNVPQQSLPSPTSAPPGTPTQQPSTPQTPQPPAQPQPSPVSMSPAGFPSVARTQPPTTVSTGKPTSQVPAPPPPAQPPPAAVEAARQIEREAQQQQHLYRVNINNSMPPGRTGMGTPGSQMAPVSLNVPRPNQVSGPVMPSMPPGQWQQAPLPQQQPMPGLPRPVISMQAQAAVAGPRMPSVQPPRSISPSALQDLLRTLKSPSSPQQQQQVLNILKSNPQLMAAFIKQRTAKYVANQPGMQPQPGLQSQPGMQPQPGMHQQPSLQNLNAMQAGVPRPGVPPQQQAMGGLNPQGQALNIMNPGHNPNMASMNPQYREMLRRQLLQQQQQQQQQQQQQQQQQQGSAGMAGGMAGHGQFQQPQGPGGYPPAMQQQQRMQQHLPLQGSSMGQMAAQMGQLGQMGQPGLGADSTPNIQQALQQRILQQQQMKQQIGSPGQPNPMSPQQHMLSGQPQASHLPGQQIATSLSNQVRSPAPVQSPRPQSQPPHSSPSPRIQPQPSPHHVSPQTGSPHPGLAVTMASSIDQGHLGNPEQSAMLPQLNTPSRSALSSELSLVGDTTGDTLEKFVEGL
Procedure: The effect of several compounds on CBP-β-catenin binding was tested using the TOPFlash reporter system in SW480 cells.

O=C1[C@H](Cc2ccc(O)cc2)N2C(=O)CCN(C(=O)NCc3ccccc3)[C@H]2CN1Cc1cccc2ccccc12 [ICG-001]
IC50 [1]: ~16 µM | level of MDR-1 protein expression [2]: significantly reduced | MDR-1/luciferase activity ([3]; HCT-116 wild type): dose dependently decreased | MDR-1/luciferase activity ([3]; Hβ18(ko/*) cell line): dose dependently decreased | MDR-1/luciferase activity ([3]; Hβ92(wt/ko) cells): essentially no further reduction below basal levels | occupancy of the MDR-1 promoter by CBP [4]: blocked in a dose dependent fashion | occupancy of the MDR-1 promoter by p300 ([4]; 25 uM ICG-001): occupancy increased | decrease of cell proliferation/viability, combination vs either agent alone [5]: significantly more effective | decrease of cell proliferation/viability, combination vs either agent alone [6]: significantly more effective | caspase3/7 activation [7]: increased caspase3/7 activation significantly | total colony forming units (CFU) [8]: most significant reduction | total colony forming units (CFU) ([8]; listed as IGC-001): significant additive effect | colony formation of normal CD34+ hematopoietic cells [9]: did not affect colony formation | total cellularity, CFU-Es and BFU-Es [9]: minimal effects | adverse effects on normal CD34+ cells ([9]; up to 20 μM): did not have significant adverse effects | caspase activation [10]: not capase activation | differentiation [10]: induced differentiation | COLONIES (n = 4) M +/− SD ([11]; 0.625 μM ICG-001): 74 +/− 4.7 | COLONIES (n = 4) M +/− SD ([11]; 1.25 μM ICG-001): 28 +/− 13.2 | COLONIES (n = 4) M +/− SD ([11]; 2.5 μM ICG-001): 0.25 +/− 0.5 | COLONIES (n = 4) M +/− SD ([11]; 5 μM ICG-001): 0 | COLONIES (n = 4) M +/− SD ([11]; 10 μM ICG-001): 0 | Average plating efficiency ([11]; 0.625 μM): 25% | Average plating efficiency ([11]; 1.25 μM): 35% | Average plating efficiency ([11]; 2.5 μM): 6% | Average plating efficiency ([11]; 5 μM): 0% | Average plating efficiency ([11]; 10 μM): 0% | Average plating efficiency ([12]; 0.625 μM): 35% | Average plating efficiency ([12]; 1.25 μM): 35% | Average plating efficiency ([12]; 2.5 μM): 13% | Average plating efficiency ([12]; 5 μM): 1% | Average plating efficiency ([12]; 10 μM): 0% | inhibition ([12]; cisplatin-resistant line CP70, 5 μM): > 90% | Average plating efficiency ([13]; 0.625 μM): 31% | Average plating efficiency ([13]; 1.25 μM): 24% | Average plating efficiency ([13]; 2.5 μM): 8% | Average plating efficiency ([13]; 5 μM): 1% | Average plating efficiency ([13]; 10 μM): 0% | Average plating efficiency ([14]; 0.625 μM): 59% | Average plating efficiency ([14]; 1.25 μM): 25% | Average plating efficiency ([14]; 2.5 μM): 13% | Average plating efficiency ([14]; 5 μM): 6% | Average plating efficiency ([14]; 10 μM): 0% | Average plating efficiency ([15]; 0.625 μM): 24% | Average plating efficiency ([15]; 1.25 μM): 18% | Average plating efficiency ([15]; 2.5 μM): 3% | Average plating efficiency ([15]; 5 μM): 0% | Average plating efficiency ([15]; 10 μM): 0% | effect on CBP-β-catenin binding (TOPFlash reporter) ([16]; listed as ICG-100): inhibited

O=C1[C@H](Cc2ccc(O)cc2)N2C(=O)CCN(C(=O)NCc3ccccc3)[C@H]2CN1Cc1cccc2ccccc12 [PRI-004]
colony formation ([8]; 500 nM, FIG. 21C legend): completely blocks colony formation | effect on CBP-β-catenin binding (TOPFlash reporter) [16]: effective; also recorded: inhibited
